Data from PubChem BioAssay (NCI).
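Cells were grown in 96-well plates and exposed to each compound for 48 hours at five concentrations; endpoints were interpolated linearly between bracketing concentrations, or set to the highest concentration if not reached. At the GI50, growth is halved. TGI is the concentration that stops growth completely.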

What was measured:
Experiment in all cases: NCI tumour cell line growth inhibition, 48 h
MDA-MB-231 breast = test system: MDA-MB-231 breast
KM20L2 colon = test system: KM20L2 colon
LXFL 529 NSCLC = test system: LXFL 529 NSCLC
HOP-18 NSCLC = test system: HOP-18 NSCLC
P388 leukemia = test system: P388 leukemia
SN12K1 renal = test system: SN12K1 renal
RXF-631 renal = test system: RXF-631 renal
P388/ADR leukemia = test system: P388/ADR leukemia

| Compound | TGI (MDA-MB-231 breast) [µM] | TGI (KM20L2 colon) [µM] | TGI (LXFL 529 NSCLC) [µM] | also measured |
| --- | --- | --- | --- | --- |
| CN=C(N)/N=C(\N)Nc1cc2ccccc2c2ccccc12 | 26.2 |  |  |  |
| COc1cc(NC(=O)CSc2nc3ccccc3c(=O)n2CCc2ccccc2)cc(OC)c1OC | 3.71 |  |  | GI50 (MDA-MB-231 breast): 1.47 µM |
| CC(=O)N1CC(=O)NC1=S |  | > 100 | > 100 |  |
| O=C(Nc1cccc([N+](=O)[O-])c1)C(=O)C(C(=O)c1ccccc1F)C1OC(=O)C2C=CC=CC21 (configuration not stated) |  | > 100 | > 100 |  |
| C/C=C1/CN2CCC34c5ccccc5N(C)C23C2CC1C4(C(=O)OC)C(O)O2 (configuration not stated) | > 100 |  |  |  |
| COc1c(O)c(O)c2c(c1O)C(=O)c1cc(C)cc(O)c1C2=O | 42 |  |  |  |
| N#CCCOCN(CO)c1nc(N(CO)COCCC#N)nc(N(CO)COCCC#N)n1 |  | 61.5 | 42.5 | TGI (HOP-18 NSCLC): 59.6 µM |
| c1ccc(CCN2CCOCC2)nc1 | > 100 |  |  |  |
| Nc1cccc2c1C1=NNC(=O)CC1C2 (configuration not stated) |  | > 100 |  | TGI (P388 leukemia): > 100 µM; TGI (SN12K1 renal): > 100 µM |
| O=C(NCCNc1nccc(-c2c(-c3cccc(O)c3)nc3sccn23)n1)Nc1cccc(C(F)(F)F)c1 | 12.3 |  |  | GI50 (MDA-MB-231 breast): 3.52 µM |
| Cc1c2cc[n+](C)cc2c(C)c2c1[nH]c1ccc(Cl)cc12 | > 47.5 | 46 | 2.59 | TGI (HOP-18 NSCLC): 22.7 µM |
| CCOC(=O)C(=O)Nc1c(CC)cccc1C(C)CC (configuration not stated) |  | > 100 | > 100 | TGI (HOP-18 NSCLC): > 100 µM; TGI (RXF-631 renal): > 100 µM |
| C=Cc1cc(OC)c2c(c1)c(=O)oc1c2cc(OC)c2c(O)ccc(C3OC(C)C(O)C(C)(O)C3O)c21 (configuration not stated) |  | 0.161 |  | TGI (HOP-18 NSCLC): 0.392 µM; TGI (P388 leukemia): 0.529 µM; TGI (P388/ADR leukemia): 0.804 µM; TGI (SN12K1 renal): 0.131 µM |
| CNS(=O)(=O)c1ccc2[nH]c(O)c(C3=Nc4ccccc4C3=O)c2c1 | > 100 |  |  |  |
